Measurements: patent publication US20250360235A1, “RADI[…] AND METHOD FOR RADIOLABELLING” (Telix Innovations SA, priority 2024, published 2025)

Test: Radiochemical purity by iTLC over time after radiolabelling
Assay type: physicochemical
Description: Table 1 to Table 5 show the results of various radiolabelling experiments on radiochemical purity and the chelation yield. The radiolabelling experiments in the tables are carried out as described in: • Example 1 for when the gallium-68 source is GE Liquid target generator and EZAG GalliaPharm generator; • Example 2 for when the gallium-68 source is IRE Galli Eo generator; • Example 3 for when the gallium-68 source is GE solid target generator;
However, the experiments were carried out with the amount of ascorbic acid as indicated in the Tables 1 to 5, and the activity as indicated in the Tables 1 to 5. Radiochemical purities were measured at various times (T0, T1, T4, T6) after the radiolabelled experiments have been conducted.
The kits of Example 1, Example 2 or Example 3, with amounts of ascorbic acid as set out in Table 7 were used in the experiments for the ascorbic acid bracketing matrix. Three strengths of [^68Ga]Ga-PSMA-11 will be tested, i.e. 50 mCi/ml, 7 mCi/ml and 1 mCi/ml. Radiochemical purity was determined at different time points (TO, T1, T4 or T6), as set out in Table 7.

[1] = 15 mg ascorbic acid, 10.0-18.4 mCi, 0.95-1.77 mCi/mL, 1 × EZAG GalliaPharm, 2 × IRE Galli Eo, average of 3, T1 (1 h)
[2] = 15 mg ascorbic acid, 10.0-18.4 mCi, 0.95-1.77 mCi/mL, 1 × EZAG GalliaPharm, 2 × IRE Galli Eo, n=3, T0
[3] = 15 mg ascorbic acid, 10.0-18.4 mCi, 0.95-1.77 mCi/mL, 1 × EZAG GalliaPharm, 2 × IRE Galli Eo, n=3, T1 (1 h)
[4] = 15 mg ascorbic acid, 23.7-47.6 mCi, 2.26-4.53 mCi/mL, 1 × EZAG GalliaPharm, 2 × IRE Galli Eo, average of 3, T0
[5] = 15 mg ascorbic acid, 23.7-47.6 mCi, 2.26-4.53 mCi/mL, 1 × EZAG GalliaPharm, 2 × IRE Galli Eo, average of 3, T4 (4 h)
[6] = 15 mg ascorbic acid, 23.7-47.6 mCi, 2.26-4.53 mCi/mL, 1 × EZAG GalliaPharm, 2 × IRE Galli Eo, n=3, T0
[7] = 15 mg ascorbic acid, 23.7-47.6 mCi, 2.26-4.53 mCi/mL, 1 × EZAG GalliaPharm, 2 × IRE Galli Eo, n=3, T4 (4 h)
[8] = 20 mg ascorbic acid, 514-544 mCi, 48.3-51.9 mCi/mL, GE Solid Target, average of 2, T0
[9] = 20 mg ascorbic acid, 514-544 mCi, 48.3-51.9 mCi/mL, GE Solid Target, average of 2, T6 (6 h)
[10] = 20 mg ascorbic acid, 514-544 mCi, 48.3-51.9 mCi/mL, GE Solid Target, n=2, T0
[11] = 20 mg ascorbic acid, 514-544 mCi, 48.3-51.9 mCi/mL, GE Solid Target, n=2, T6 (6 h)
[12] = 25 mg ascorbic acid, 19.5-20.0 mCi, 1.85-1.90 mCi/mL, EZAG GalliaPharm, average of 2, T0
[13] = 25 mg ascorbic acid, 19.5-20.0 mCi, 1.85-1.90 mCi/mL, EZAG GalliaPharm, average of 2, T1 (1 h)
[14] = 25 mg ascorbic acid, 19.5-20.0 mCi, 1.85-1.90 mCi/mL, EZAG GalliaPharm, n=2, T0
[15] = 25 mg ascorbic acid, 19.5-20.0 mCi, 1.85-1.90 mCi/mL, EZAG GalliaPharm, n=2, T1 (1 h)
[16] = 25 mg ascorbic acid, 23.3-24 mCi, 2.22-2.28 mCi/mL, IRE Galli Eo, average of 2, T0
[17] = 25 mg ascorbic acid, 23.3-24 mCi, 2.22-2.28 mCi/mL, IRE Galli Eo, average of 2, T4 (4 h)
[18] = 25 mg ascorbic acid, 23.3-24 mCi, 2.22-2.28 mCi/mL, IRE Galli Eo, n=2, T0
[19] = 25 mg ascorbic acid, 23.3-24 mCi, 2.22-2.28 mCi/mL, IRE Galli Eo, n=2, T4 (4 h)
[20] = 25 mg ascorbic acid, 46.0-46.1 mCi, 4.38-4.39 mCi/mL, EZAG GalliaPharm, average of 2, T0

O=C([O-])CN(CCN(CC(=O)[O-])Cc1cc(CCC(=O)NCCCCCC(=O)NCCCC[C@H](NC(=O)N[C@@H](CCC(=O)O)C(=O)O)C(=O)O)ccc1[O-])Cc1cc(CCC(=O)O)ccc1[O-].[68Ga+3].[OH3+] [[^68Ga]PSMA-11, gallium-68 radiolabelled Glu-urea-Lys-HBED-CC (gozetotide or PSMA-11)]
Radiochemical Purity (iTLC) Ga-68 PSMA-11 (%) (15 mg ascorbic acid, 10.0-18.4 mCi, 0.95-1.77 mCi/mL, 1 × EZAG GalliaPharm, 2 × IRE Galli Eo, average of 3, T0): 100%
Radiochemical Purity (iTLC) Free and Colloidal Ga-68 (%) [1]: 0%
Radiochemical Purity (iTLC) Ga-68 PSMA-11 (%) [1]: 100%
Radiochemical Purity (iTLC) Free and Colloidal Ga-68 (%) [2]: C (C = conforms to specifications)
Radiochemical Purity (iTLC) Ga-68 PSMA-11 (%) [2]: C (C = conforms to specifications)
Radiochemical Purity (iTLC) Free and Colloidal Ga-68 (%) [3]: C (C = conforms to specifications)
Radiochemical Purity (iTLC) Ga-68 PSMA-11 (%) [3]: C (C = conforms to specifications)
Radiochemical Purity (iTLC) Free and Colloidal Ga-68 (%) [4]: 0%
Radiochemical Purity (iTLC) Ga-68 PSMA-11 (%) [4]: 100%
Radiochemical Purity (iTLC) Free and Colloidal Ga-68 (%) [5]: 0%
Radiochemical Purity (iTLC) Ga-68 PSMA-11 (%) [5]: 100%
Radiochemical Purity (iTLC) Free and Colloidal Ga-68 (%) [6]: C (C = conforms to specifications)
Radiochemical Purity (iTLC) Ga-68 PSMA-11 (%) [6]: C (C = conforms to specifications)
Radiochemical Purity (iTLC) Free and Colloidal Ga-68 (%) [7]: C (C = conforms to specifications)
Radiochemical Purity (iTLC) Ga-68 PSMA-11 (%) [7]: C (C = conforms to specifications)
Radiochemical Purity (iTLC) Free and Colloidal Ga-68 (%) [8]: 3%
Radiochemical Purity (iTLC) Ga-68 PSMA-11 (%) [8]: 97%
Radiochemical Purity (iTLC) Free and Colloidal Ga-68 (%) [9]: 2%
Radiochemical Purity (iTLC) Ga-68 PSMA-11 (%) [9]: 98%
Radiochemical Purity (iTLC) Free and Colloidal Ga-68 (%) [10]: C (C = conforms to specifications)
Radiochemical Purity (iTLC) Ga-68 PSMA-11 (%) [10]: C (C = conforms to specifications)
Radiochemical Purity (iTLC) Free and Colloidal Ga-68 (%) [11]: C (C = conforms to specifications)
Radiochemical Purity (iTLC) Ga-68 PSMA-11 (%) [11]: C (C = conforms to specifications)
Radiochemical Purity (iTLC) Free and Colloidal Ga-68 (%) [12]: 2%
Radiochemical Purity (iTLC) Ga-68 PSMA-11 (%) [12]: 98%
Radiochemical Purity (iTLC) Free and Colloidal Ga-68 (%) [13]: 0%
Radiochemical Purity (iTLC) Ga-68 PSMA-11 (%) [13]: 100%
Radiochemical Purity (iTLC) Free and Colloidal Ga-68 (%) [14]: C (C = all results conform to specifications)
Radiochemical Purity (iTLC) Ga-68 PSMA-11 (%) [14]: C (C = all results conform to specifications)
Radiochemical Purity (iTLC) Free and Colloidal Ga-68 (%) [15]: C (C = all results conform to specifications)
Radiochemical Purity (iTLC) Ga-68 PSMA-11 (%) [15]: C (C = all results conform to specifications)
Radiochemical Purity (iTLC) Free and Colloidal Ga-68 (%) [16]: 1%
Radiochemical Purity (iTLC) Ga-68 PSMA-11 (%) [16]: 99%
Radiochemical Purity (iTLC) Free and Colloidal Ga-68 (%) [17]: 0%
Radiochemical Purity (iTLC) Ga-68 PSMA-11 (%) [17]: 100%
Radiochemical Purity (iTLC) Free and Colloidal Ga-68 (%) [18]: C (C = all results conform to specifications)
Radiochemical Purity (iTLC) Ga-68 PSMA-11 (%) [18]: C (C = all results conform to specifications)
Radiochemical Purity (iTLC) Free and Colloidal Ga-68 (%) [19]: C (C = all results conform to specifications)
Radiochemical Purity (iTLC) Ga-68 PSMA-11 (%) [19]: C (C = all results conform to specifications)
Radiochemical Purity (iTLC) Free and Colloidal Ga-68 (%) [20]: 0%
Radiochemical Purity (iTLC) Ga-68 PSMA-11 (%) [20]: 100%
